Assay results reported in BindingDB's records for doi:10.1016/j.bmcl.2006.05.062 (AstraZeneca, 2006).

Test: Inhibition of COX1-mediated platelet aggregation

IC50: 40 nM
SMILES: COc1ccc2c(c1)c(CC(=O)O)c(C)n2-c1ccnc2cc(Cl)ccc12 [2-(1-(7-chloroquinolin-4-yl)-5-methoxy-2-methyl-1H-indol-3-yl)acetic acid]
